From BigSolDB 2.1

CC(C)OC(=O)[C@H](C)N[P@](=O)(Oc1ccccc1)Oc1c(F)c(F)c(F)c(F)c1F
solubility (mole fraction)
Conditions | in acetone | in acetonitrile | in ethanol | in ethyl acetate | in isopropanol | in methanol | in n-butanol | in n-propanol | in toluene | in water
278.15 K | 0.00921 | 0.00297 | 0.0019 | 0.0073 | 0.00118 | 0.0023 | 0.000812 | 0.00144 | 0.00381 | 2.39e-05
283.15 K | 0.0111 | 0.0036 | 0.00234 | 0.00889 | 0.00156 | 0.0028 | 0.0011 | 0.00191 | 0.00469 | 3.23e-05
288.15 K | 0.0132 | 0.00439 | 0.00293 | 0.0108 | 0.00204 | 0.00347 | 0.00152 | 0.00246 | 0.00572 | 4.42e-05
293.15 K | 0.0159 | 0.00538 | 0.00366 | 0.0132 | 0.00265 | 0.00423 | 0.00198 | 0.00311 | 0.00696 | 6.06e-05
298.15 K | 0.019 | 0.00653 | 0.00451 | 0.0157 | 0.00343 | 0.00519 | 0.00267 | 0.0039 | 0.00848 | 7.96e-05
303.15 K | 0.0226 | 0.00787 | 0.00556 | 0.0191 | 0.00431 | 0.00632 | 0.00348 | 0.0049 | 0.0103 | 0.000106
308.15 K | 0.0268 | 0.00941 | 0.00686 | 0.0227 | 0.00545 | 0.00766 | 0.00463 | 0.00608 | 0.0125 | 0.000137
313.15 K | 0.0315 | 0.0113 | 0.00836 | 0.0269 | 0.00692 | 0.00927 | 0.00609 | 0.00748 | 0.0151 | 0.000182
318.15 K | 0.0371 | 0.0133 | 0.0101 | 0.032 | 0.00875 | 0.0111 | 0.00789 | 0.00927 | 0.0181 | 0.000235
